Data reported in article PMC12163827, “Identification of Novel Leishmania donovani Nucleoside Hydrolase Inhibitors from Banisteriopsis laevifolia Using Affinity Selection-Mass Spectrometry” (ACS Omega, 2025).
Like-named read-outs stand apart in the source and are kept apart here. Blank lines part the entries; values can stand above or below the molecule they belong to.

Tests used:
Format in all cases: biochemical
[1] = biological target: T1, Leishmania donovani nucleoside hydrolase (LdNH) (Leishmania donovani, UniProt Q8WQX2); assay: HPLC-DAD inosine hydrolysis assay with immobilized purified LdNH plus […] Triton X-100; also AS-MS (affinity ratio […])
T1 construct: gene iunh
T1 sequence (Q8WQX2 1-314): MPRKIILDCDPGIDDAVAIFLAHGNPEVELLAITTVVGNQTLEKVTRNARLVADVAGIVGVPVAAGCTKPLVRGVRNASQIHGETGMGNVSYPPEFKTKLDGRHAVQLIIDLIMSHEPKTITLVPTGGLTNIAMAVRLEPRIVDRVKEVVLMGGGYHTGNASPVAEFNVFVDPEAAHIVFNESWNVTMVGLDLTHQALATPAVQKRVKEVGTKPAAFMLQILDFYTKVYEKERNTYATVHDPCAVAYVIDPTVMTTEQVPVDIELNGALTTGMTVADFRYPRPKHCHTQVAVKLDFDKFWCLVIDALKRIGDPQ

[2] = biological target: T1, Leishmania donovani nucleoside hydrolase (LdNH); assay: as above; remark: listed apart in the source
[3] = biological target: T1, Leishmania donovani nucleoside hydrolase (LdNH); assay: HPLC-DAD inosine hydrolysis assay with immobilized LdNH, single concentration […] with Triton X-100; also AS-MS (affinity ratio […]); conditions: read-out: inhibition at 100 μmol/L (with Triton X-100) (%)
[4] = biological target: T1, Leishmania donovani nucleoside hydrolase (LdNH); assay: as above; conditions: read-out: inhibition at 100 μmol/L (with Triton X-100) (%); remark: listed apart in the source

- IC50 [1]: 41.6 ± 8.9 µM
Structure (SMILES): O=c1c(O[C@@H]2O[C@H](CO)[C@@H](O)[C@H](O)[C@H]2O)c(-c2ccc(O)cc2)oc2cc(O)cc(O)c12 [astragalin]

- IC50 [2]: 40.2 ± 16.6 µM
Structure (SMILES): O=c1c(O[C@@H]2O[C@H](CO)[C@@H](O)[C@H](O)[C@H]2O)c(-c2ccc(O)c(O)c2)oc2cc(O)cc(O)c12 [isoquercetin]

Structure (SMILES): O=c1cc(-c2ccc(O)c(O)c2)oc2c([C@@H]3O[C@H](CO)[C@@H](O)[C@H](O)[C@H]3O)c(O)cc(O)c12 [orientin]
- inhibition at 100 µM [3]: 30.4%

- inhibition at 100 µM [4]: 61.2%
Structure (SMILES): C[C@@H]1O[C@@H](OC[C@H]2O[C@@H](Oc3c(-c4ccc(O)c(O)c4)oc4cc(O)cc(O)c4c3=O)[C@H](O)[C@@H](O)[C@@H]2O)[C@H](O)[C@H](O)[C@H]1O [rutin]
